12 molecules from patent US20250179066A1, “ZWITTERIONIC ANTIBACTERIAL COMPOUNDS” (Hoffmann-La Roche Inc., priority 2022, published 2025) can be followed below.

In general, IC90 refers to the concentration at which the effect reaches the 90% level.

Structures can show the parent of a compound that is named as a salt.

The test system of the assay is Acinetobacter baumannii ATCC17961. Kind of assay: Antimicrobial susceptibility testing: 90% growth inhibitory concentration (IC90) determination. It is filed as cell-based. The conditions noted are these: Acinetobacter baumannii, ATCC17961, 16 h, 90% growth inhibitory concentration against Acinetobacter baumannii ATCC17961, Iso-Sensitest broth, OD 600 nm over 16 h; read-out: ATCC 17961 IC90. An outline of the steps: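 Twofold serial dilutions (e.g. 10 to 0.0195 μM final) in Iso-Sensitest broth inoculated at ~5×10^5 CFU/mL, incubated at 35±2° C. OD600 read every minute for 16 h; IC90 is the concentration inhibiting 90% of growth during logarithmic phase.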
`Cn1c(-c2cn(-c3ccc4[nH]ccc4n3)nc2C(F)(F)F)cnc1C(=O)Nc1ccc(C(=O)N2CCN(C(=O)[C@H]3CC[N@+](CC(=O)O)(CC4CNC4)CC3)CC2)c(Cl)c1` [Example 27, cis-2-[1-(azetidin-3-ylmethyl)-4-[4-[2-chloro-4-[[1-methyl-5-[1-(1H-pyrrolo[3,2-b]pyridin-5-yl)-3-(trifluoromethyl)pyrazol-4-yl]imidazole-2-carbonyl]amino]benzoyl]piperazine-1-carbonyl]piperidin-1-ium-1-yl]acetic acid. 1:1 2,2,2-trifluoroacetate]: the concentration for an effect of 90% (IC90) was 0.36 µM. In the case of `Cn1c(-c2cn(-c3ccc(NC[C@@H]4CCCN4)cn3)nc2C(F)(F)F)cnc1C(=O)Nc1ccc(C(=O)N2CCN(C(=O)C3CC[N+](CC(=O)O)(CC4CNC4)CC3)CC2)c(Cl)c1` (stereo partly drawn) [Example 28, 2-[1-(azetidin-3-ylmethyl)-4-[4-[2-chloro-4-[[1-methyl-5-[1-[5-[[(2S)-pyrrolidin-2-yl]methylamino]-2-pyridyl]-3-(trifluoromethyl)pyrazol-4-yl]imidazole-2-carbonyl]amino]benzoyl]piperazine-1-carbonyl]piperidin-1-ium-1-yl]acetic acid. 1:1 2,2,2-trifluoroacetic acid. 1:1 2,2,2-trifluoroacetate], the 90% effect concentration (IC90) was found to be 0.36 µM. For `CNc1ccc(-n2cc(-c3cnc(C(=O)Nc4ccc(C(=O)N5CCN(C(=O)[C@H]6CC[N@+](CC(=O)O)(CC7CNC7)CC6)CC5)c(Cl)c4)n3C)c(C(F)(F)F)n2)nc1` [Example 29, cis-2-[1-(azetidin-3-ylmethyl)-4-[4-[2-chloro-4-[[1-methyl-5-[1-[5-(methylamino)-2-pyridyl]-3-(trifluoromethyl)pyrazol-4-yl]imidazole-2-carbonyl]amino]benzoyl]piperazine-1-carbonyl]piperidin-1-ium-1-yl]acetic acid. 1:1 2,2,2-trifluoroacetate], the IC90 was 0.36 µM. Take `Cn1c(-c2cn(-c3ccc(N)cn3)nc2C(F)(F)F)cnc1C(=O)Nc1ccc(C(=O)N2CCN(C(=O)C3CC[N+](CCCN)(CC(=O)O)CC3)CC2)c(Cl)c1` (stereo not drawn) [Example 30, 2-[1-(3-aminopropyl)-4-[4-[4-[[5-[1-(5-amino-2-pyridyl)-3-(trifluoromethyl)pyrazol-4-yl]-1-methyl-imidazole-2-carbonyl]amino]-2-chloro-benzoyl]piperazine-1-carbonyl]piperidin-1-ium-1-yl]acetic acid. 1:1 2,2,2-trifluoroacetate]: the concentration for an effect of 90% (IC90) worked out at 0.37 µM. As for `COCCNc1ccc(-n2cc(-c3cnc(C(=O)Nc4ccc(C(=O)N5CCN(C(=O)[C@H]6CC[N@+](CC(=O)O)(CC7CNC7)CC6)CC5)c(Cl)c4)n3C)c(C(F)(F)F)n2)nc1` [Example 31, cis-2-[1-(Azetidin-3-ylmethyl)-4-[4-[2-chloro-4-[[5-[1-[5-(2-methoxyethylamino)-2-pyridyl]-3-(trifluoromethyl)pyrazol-4-yl]-1-methyl-imidazole-2-carbonyl]amino]benzoyl]piperazine-1-carbonyl]piperidin-1-ium-1-yl]acetic Acid;2,2,2-trifluoroacetate], the IC90 was found to be 0.37 µM. With `Cn1c(-c2cn(-c3ccc(N)cn3)nc2C(F)(F)F)cnc1C(=O)Nc1ccc(C(=O)N2CCN(C(=O)[C@H]3CC[N@@+](CCCN)(CC(=O)O)CC3)CC2)c(Cl)c1` [Example 32, cis-2-[1-(3-aminopropyl)-4-[4-[4-[[5-[1-(5-amino-2-pyridyl)-3-(trifluoromethyl)pyrazol-4-yl]-1-methyl-imidazole-2-carbonyl]amino]-2-chloro-benzoyl]piperazine-1-carbonyl]piperidin-1-ium-1-yl]acetic acid. 1:1 2,2,2-trifluoroacetate], the 90% effect concentration (IC90) is 0.37 µM. Consider `Cn1c(-c2cn(-c3ccc4[nH]c(CO)cc4n3)nc2C(F)(F)F)cnc1C(=O)Nc1ccc(C(=O)N2CCN(C(=O)[C@H]3CC[N@+](CC(=O)O)(CC4CNC4)CC3)CC2)c(Cl)c1` [Example 33, cis-2-[1-(azetidin-3-ylmethyl)-4-[4-[2-chloro-4-[[1-methyl-5-[1-(2-methylol-1H-pyrrolo[3,2-b]pyridin-5-yl)-3-(trifluoromethyl)pyrazol-4-yl]imidazole-2-carbonyl]amino]benzoyl]piperazine-1-carbonyl]piperidin-1-ium-1-yl]acetic acid. 1:1 2,2,2-trifluoroacetate], for which the concentration for an effect of 90% (IC90) was found to be 0.38 µM. Consider `Cn1c(-c2cn(-c3ccc(N)cn3)nc2C(F)(F)F)cnc1C(=O)Nc1ccc(C(=O)N2CCN(C(=O)[C@H]3CC[N@+](CC(=O)O)(CC4CNC4)CC3)CC2)c(Cl)c1` [Example 34, cis-2-[4-[4-[4-[[5-[1-(5-amino-2-pyridyl)-3-(trifluoromethyl)pyrazol-4-yl]-1-methyl-imidazole-2-carbonyl]amino]-2-chloro-benzoyl]piperazine-1-carbonyl]-1-(azetidin-3-ylmethyl)piperidin-1-ium-1-yl]acetic acid. 1:1 2,2,2-trifluoroacetic acid. 1:1 2,2,2-trifluoroacetate], for which the IC90 stood at 0.4 µM.

As for `Cn1c(-c2cn(-c3ccc(N)cn3)nc2C(F)(F)F)cnc1C(=O)Nc1ccc(C(=O)N2CCN(C(=O)CCC[N+](CCCN)(CCCN)CC(=O)O)CC2)c(Cl)c1` [Example 35, bis(3-aminopropyl)-[4-[4-[4-[[5-[1-(5-amino-2-pyridyl)-3-(trifluoromethyl)pyrazol-4-yl]-1-methyl-imidazole-2-carbonyl]amino]-2-chloro-benzoyl]piperazino]-4-keto-butyl]-(carboxymethyl)ammonium. 1:1 2,2,2-trifluoroacetic acid. 1:1 2,2,2-trifluoroacetate], the IC90 was determined as 0.4 µM. For the molecule `Cn1c(-c2cn(-c3ccc(NCCN)cn3)nc2C(F)(F)F)cnc1C(=O)Nc1ccc(C(=O)N2CCN(C(=O)CCC[N+](CCCCN)(CCCCN)CC(=O)O)CC2)c(Cl)c1` [Example 36, bis(4-aminobutyl)-[4-[4-[4-[[5-[1-[5-(2-aminoethylamino)-2-pyridyl]-3-(trifluoromethyl)pyrazol-4-yl]-1-methyl-imidazole-2-carbonyl]amino]-2-chloro-benzoyl]piperazino]-4-keto-butyl]-(carboxymethyl)ammonium. 1:2 2,2,2-trifluoroacetic acid. 1:1 2,2,2-trifluoroacetate], the IC90 amounted to 0.42 µM.

In the case of `COc1ccc(-n2cc(-c3cnc(C(=O)Nc4ccc(C(=O)N5CCN(C(=O)C6CC[N+](CC(=O)O)(CC7CNC7)CC6)CC5)c(Cl)c4)n3C)c(C(F)(F)F)n2)cc1` (stereo not drawn) [Example 37, 2-[1-(azetidin-3-ylmethyl)-4-[4-[2-chloro-4-[[5-[1-(4-methoxyphenyl)-3-(trifluoromethyl)pyrazol-4-yl]-1-methyl-imidazole-2-carbonyl]amino]benzoyl]piperazine-1-carbonyl]piperidin-1-ium-1-yl]acetic acid. 1:1 formate], the 90% effect concentration (IC90) was 0.42 µM.

For the molecule `Cn1c(-c2cn(-c3ccc(NCCO)cn3)nc2C(F)(F)F)cnc1C(=O)Nc1ccc(C(=O)N2CCN(C(=O)[C@H]3CC[N@+](CC(=O)O)(CC4CNC4)CC3)CC2)c(Cl)c1` [Example 38, cis-2-[1-(azetidin-3-ylmethyl)-4-[4-[2-chloro-4-[[5-[1-[5-(2-hydroxyethylamino)-2-pyridyl]-3-(trifluoromethyl)pyrazol-4-yl]-1-methyl-imidazole-2-carbonyl]amino]benzoyl]piperazine-1-carbonyl]piperidin-1-ium-1-yl]acetic acid; formate], the IC90 worked out at 0.43 µM.
